Source: patent US20250129104A1, “7H-PYRROLO[2,3-D]PYRIMIDINES AND PREPARATION AND USES THEREOF” (BioSplice Therapeutics, Inc., priority 2021, published 2025)

How the values were obtained:
[1] = target: recombinant DYRK1A kinase (Homo sapiens (Human), UniProt Q13627); test: DYRK1A kinase assay (Ser/Thr 18 peptide Z-lyte FRET assay); format: biochemical; settings: DYRK1A kinase activity; 15 μM ATP, 1 h room temperature; method text calls the value IC50
Outline: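 Recombinant human DYRK1A (0.25 μg/mL) with 15 μM ATP and 4 μM Ser/Thr 18 peptide, 1 h at room temperature with compound (11-point, 1:3, 10 μM top, duplicate). Z-lyte development 1 h, then coumarin/fluorescein FRET emission ratio converted to % phosphorylation; IC50 by non-linear regression.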

[2] = test system: Tau phosphorylation at Thr212 (pThr212); test: tau phosphorylation assay: phosphoTau (Thr212) AlphaLISA in HEK293T cells transfected with DYRK1A and MAPT; format: cell-based; settings: HEK-293T; HEK293T cells transfected with human DYRK1A and MAPT; 18-24 h compound treatment; read-out: pTau (Thr212) EC50
Description: Representative compounds were screened using the assay procedure for tau phosphorylation activity described below.
HEK293T cells (ATCC, CRL3216) cultured in DMEM (Thermo Fisher Scientific, 10566024) supplemented with 10% FBS (Corning, 35-011-CV) and Penicillin/Streptomycin (Thermo Fisher Scientific, 15140163) were seeded in a 75 cm^2 flask at 8.1×10^6 cells/flask. The HEK293T cells were then transiently transfected with 5 μg DYRK1A (NM_001396) human untagged clone (OriGene, SC314641) and 2.5 μg MAPT (441 a.a. Tau gene) (NM_005910) human untagged clone (OriGene, TP313312) using Lipofectamine 3000 (Thermo Fisher Scientific, L30000015) and incubated for 20-30 hours in a humidified incubator at 37° C. and 5% CO2. Post-incubation, HEK293T cells transfected with the DYRK1A and MAPT expression vectors were harvested and seeded in BioCoat poly-D lysine coated 96-well plates (Corning, 354461) at 3×10^4 cells/well.
The above synthesized compounds were screened using the cell assay procedure to assess decreased Tau phosphorylation at Thr212 (pThr212) described below.
Each compound was dissolved in DMSO (Sigma-Aldrich, D8418-100 mL) as a 10 mM stock. 10 mM stocks were serially diluted 1:3, 10-point dose-response curve and added to the cells with a final concentration ranging from 20 μM to 1.1 nM. Cell were treated with compounds in duplicate and incubated for 18-24 hours in a humidified incubator at 37° C. and 5% CO2.
Following the overnight compound treatment, cells were lysed with 1× Alpha Surefire Ultra Lysis Buffer (Perkin Elmer, ALSU-LB-100ML) complemented with 1× Halt Phosphatase Inhibitor Cocktail (Thermo Fisher Scientific, 78427) and 1× Halt Protease Inhibitor Cocktail (Thermo Fisher Scientific, 78438). Lysates were spun down at 12,000 g for 10 min to remove any cellular debris and 5 μL of lysates were dispensed into a 384-well Opti-Plate (Perkin Elmer, 6007290) for the measurement of Tau phosphorylation in the phosphoTau (Thr212) AlphaLISA assay. Donor antibody, biotinylated HT7Tau (Thermo Fisher Scientific, MN1000B), and acceptor antibody, pThr212Tau (Thermo Fisher Scientific, 44740G) were both added to the cell lysates at a final concentration of 3 nM and incubated for 1 hour at room temperature. Following incubation of the lysates with the donor and acceptor antibodies, anti-rabbit IgG (Fc specific) AlphaLISA acceptor beads (Perkin Elmer, AL104C) were added at a 10 μg/mL final concentration and incubated for 1 hour at room temperature protected from light. Lastly, AlphaScreen streptavidin donor beads (PerkinElmer, 6760002) were added at 40 μg/mL final concentration and incubated for 1 hour at room temperature protected from light. Plates were read at […], and Em=615 nm on the EnVision Multilabel Plate Reader (Perkin Elmer). PhosphoTau (Thr212) AlphaLISA signal was used to plot, draw the curve fitting, and determine each compound's EC50 in Prism (GraphPad).

| Compound | EC50 [1] | EC50 [2] |
| --- | --- | --- |
| C[C@@H](Nc1ncc2c(-c3ccc4nccn4c3)c[nH]c2n1)C(F)(F)F [Compound 115, (R)-5-(Imidazo[1,2-a]pyridin-6-yl)-N-(1,1,1-trifluoropropan-2-yl)-7H-pyrrolo [2,3-d]pyrimidin-2-amine] | 0.0031 µM | 0.03 µM |
| C[C@H](Nc1ncc2c(-c3ccc4nccn4c3)c[nH]c2n1)C(F)(F)F [Compound 116, (S)-5-(Imidazo[1,2-a]pyridin-6-yl)-N-(1,1,1-trifluoropropan-2-yl)-7H-pyrrolo [2,3-d]pyrimidin-2-amine] | 0.0096 µM | 0.117 µM |
| CC[C@H](C)Nc1ncc2c(-c3ccc4ncc(F)n4c3)c[nH]c2n1 [Compound 154, (S)—N-(sec-Butyl)-5-(3-fluoroimidazo[1,2-a]pyridin-6-yl)-7H-pyrrolo[2,3-d]pyrimidin-2-amine] | 0.0259 µM | 0.476 µM |
| CC(C)(F)CNc1ncc2c(-c3ccc4ncc(F)n4c3)c[nH]c2n1 [Compound 155, N-(2-Fluoro-2-methylpropyl)-5-(3-fluoroimidazo[1,2-a]pyridin-6-yl)-7H-pyrrolo[2,3-d]pyrimidin-2-amine] | 0.0117 µM | 0.227 µM |
| COC[C@H](C)Nc1ncc2c(-c3ccc4ncc(F)n4c3)c[nH]c2n1 [Compound 161, (S)-5-(3-Fluoroimidazo[1,2-a]pyridin-6-yl)-N-(1-methoxypropan-2-yl)-7H-pyrrolo[2,3-d]pyrimidin-2-amine] | 0.0265 µM | 0.361 µM |
| COc1nc(CC(C)C)nc2[nH]cc(-c3cc(F)c4nccn4c3)c12 [Compound 187, 5-(8-Fluoroimidazo[1,2-a]pyridin-6-yl)-2-isobutyl-4-methoxy-7H-pyrrolo [2,3-d]pyrimidine] | 0.0203 µM | 0.765 µM |
| Fc1cc(-c2c[nH]c3nc(C4CC4)ncc23)cn2ccnc12 [Compound 189, 2-Cyclopropyl-5-(8-fluoroimidazo[1,2-a]pyridin-6-yl)-7H-pyrrolo[2,3-d]pyrimidine] | 0.0242 µM | 1.66 µM |
| CC[C@H](C)Nc1ncc2c(-c3cc(F)c4nccn4c3)c[nH]c2n1 [Compound 198, (S)—N-(sec-Butyl)-5-(8-fluoroimidazo[1,2-a]pyridin-6-yl)-7H-pyrrolo[2,3-d]pyrimidin-2-amine] | 0.0195 µM | 0.351 µM |
| CC(C)(F)CNc1ncc2c(-c3cc(F)c4nccn4c3)c[nH]c2n1 [Compound 199, N-(2-Fluoro-2-methylpropyl)-5-(8-fluoroimidazo[1,2-a]pyridin-6-yl)-7H-pyrrolo[2,3-d]pyrimidin-2-amine] | 0.0155 µM | 0.049 µM |
| C[C@@H](Nc1ncc2c(-c3cc(F)c4nccn4c3)c[nH]c2n1)C(F)(F)F [Compound 202, (R)-5-(8-Fluoroimidazo[1,2-a]pyridin-6-yl)-N-(1,1,1-trifluoropropan-2-yl)-7H-pyrrolo[2,3-d]pyrimidin-2-amine] | 0.006 µM | 0.076 µM |
| COC[C@H](C)Nc1ncc2c(-c3cc(F)c4nccn4c3)c[nH]c2n1 [Compound 205, (S)-5-(8-Fluoroimidazo[1,2-a]pyridin-6-yl)-N-(1-methoxypropan-2-yl)-7H-pyrrolo[2,3-d]pyrimidin-2-amine] | 0.0052 µM | 0.124 µM |
| Fc1cc(-c2c[nH]c3nc(NCC4(F)CC4)ncc23)cn2ccnc12 [Compound 208, N-((1-Fluorocyclopropyl)methyl)-5-(8-fluoroimidazo[1,2-a]pyridin-6-yl)-7H-pyrrolo[2,3-d]pyrimidin-2-amine] | 0.0071 µM | 0.03 µM |
| Cc1cnc2c(F)cc(-c3c[nH]c4nc(C5CC5)ncc34)cn12 [Compound 276, 2-Cyclopropyl-5-(8-fluoro-3-methylimidazo[1,2-a]pyridin-6-yl)-7H-pyrrolo [2,3-d]pyrimidine] | 0.0284 µM | 0.657 µM |
| CC[C@H](C)Nc1ncc2c(-c3cc(F)c4ncc(C)n4c3)c[nH]c2n1 [Compound 285, (S)—N-(sec-Butyl)-5-(8-fluoro-3-methylimidazo[1,2-a]pyridin-6-yl)-7H-pyrrolo[2,3-d]pyrimidin-2-amine] | 0.0127 µM | 0.241 µM |
| COC[C@H](C)Nc1ncc2c(-c3cc(F)c4ncc(C)n4c3)c[nH]c2n1 [Compound 292, (S)-5-(8-Fluoro-3-methylimidazo[1,2-a]pyridin-6-yl)-N-(1-methoxypropan-2-yl)-7H-pyrrolo[2,3-d]pyrimidin-2-amine] | 0.017 µM | 0.509 µM |
| Cc1cnc2c(F)cc(-c3c[nH]c4nc(NC5CCC(F)(F)CC5)ncc34)cn12 [Compound 301, N-(4,4-Difluorocyclohexyl)-5-(8-fluoro-3-methylimidazo[1,2-a]pyridin-6-yl)-7H-pyrrolo[2,3-d]pyrimidin-2-amine] | 0.0066 µM | 0.066 µM |
| CC(C)(F)CNc1ncc2c(-c3ccc4ncc(C(F)F)n4c3)c[nH]c2n1 [Compound 329, 5-(3-(difluoromethyl)imidazo[1,2-a]pyridin-6-yl)-N-(2-fluoro-2-methylpropyl)-7H-pyrrolo[2,3-d]pyrimidin-2-amine] | 0.0068 µM | 0.211 µM |
| O=C(NCC(F)F)c1cnc2ccc(-c3c[nH]c4nc(C5CC5)ncc34)cn12 [Compound 407, 6-(2-Cyclopropyl-7H-pyrrolo[2,3-d]pyrimidin-5-yl)-N-(2,2-difluoroethyl) imidazo[1,2-a]pyridine-3-carboxamide] | 0.0012 µM | 0.011 µM |
| CC(C)Cc1ncc2c(-c3cnc4nccn4c3)c[nH]c2n1 [Compound 448, 5-(Imidazo[1,2-a]pyrimidin-6-yl)-2-isobutyl-7H-pyrrolo[2,3-d]pyrimidine] | 0.0093 µM | 0.245 µM |
| FC(F)(F)CCc1ncc2c(-c3cnc4nccn4c3)c[nH]c2n1 [Compound 449, 5-(Imidazo[1,2-a]pyrimidin-6-yl)-2-(3,3,3-trifluoropropyl)-7H-pyrrolo[2,3-d]pyrimidine] | 0.0094 µM | 0.497 µM |
| c1cn2cc(-c3c[nH]c4nc(C5CC5)ncc34)cnc2n1 [Compound 450, 2-Cyclopropyl-5-(imidazo[1,2-a]pyrimidin-6-yl)-7H-pyrrolo[2,3-d]pyrimidine] | 0.0161 µM | 0.98 µM |
| c1cn2cc(-c3c[nH]c4nc(CC5CCC5)ncc34)cnc2n1 [Compound 452, 2-(Cyclobutylmethyl)-5-(imidazo[1,2-a]pyrimidin-6-yl)-7H-pyrrolo[2,3-d]pyrimidine] | 0.0202 µM | 1.22 µM |
| CC(C)(F)CNc1ncc2c(-c3cnc4nccn4c3)c[nH]c2n1 [Compound 460, N-(2-Fluoro-2-methylpropyl)-5-(imidazo[1,2-a]pyrimidin-6-yl)-7H-pyrrolo [2,3-d]pyrimidin-2-amine] | 0.0015 µM | 0.057 µM |
| C[C@@H](Nc1ncc2c(-c3cnc4nccn4c3)c[nH]c2n1)C1CC1 [Compound 469, (R)—N-(1-cyclopropylethyl)-5-(imidazo[1,2-a]pyrimidin-6-yl)-7H-pyrrolo [2,3-d]pyrimidin-2-amine] | 0.0076 µM | 0.246 µM |
| COc1nc(CC(C)C)nc2[nH]cc(-c3cc(F)c4nc(C)n(C(C)C)c4c3)c12 [Compound 497, 5-(4-Fluoro-1-isopropyl-2-methyl-1H-benzo[d]imidazol-6-yl)-2-isobutyl-4-methoxy-7H-pyrrolo[2,3-d]pyrimidine] | 0.0092 µM | 0.433 µM |
| Cc1nc2c(F)cc(-c3c[nH]c4nc(C5CC5)ncc34)cc2n1C(C)C [Compound 499, 2-Cyclopropyl-5-(4-fluoro-1-isopropyl-2-methyl-1H-benzo[d]imidazol-6-yl)-7H-pyrrolo[2,3-d]pyrimidine] | 0.006 µM | 0.296 µM |
